In patent publication US10736883B2, “Triazole furan compounds as agonists of the APJ receptor” (AMGEN INC., priority 2016, dated 2020) one finds EC50 data, which are given here for 29 molecules.

The target of the test is APJ receptor (Homo sapiens (Human), UniProt P35414). The experiment in a line: [35S]GTPγS binding assay on membranes from CHO cells stably expressing human APJ receptor. The note with it: membranes of CHO cells stably expressing human APJ receptor, means of several independent experiments, read-out: Activity hAPJ SPA EC50 IP. The class given is biochemical. In short, it runs like this: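 Membranes from CHO cells stably expressing human APJ were incubated with 0.2 nM [35S]GTPγS and ligands for 90 min at RT in 20 mM HEPES pH 7.5, 5 mM MgCl2, 200 mM NaCl, 3 μM GDP, 0.1% BSA with WGA PS beads. Nonspecific binding was set with 100 μM GTPγS. EC50 came from non-linear regression.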
Chain of APJ receptor (P35414 whole entry): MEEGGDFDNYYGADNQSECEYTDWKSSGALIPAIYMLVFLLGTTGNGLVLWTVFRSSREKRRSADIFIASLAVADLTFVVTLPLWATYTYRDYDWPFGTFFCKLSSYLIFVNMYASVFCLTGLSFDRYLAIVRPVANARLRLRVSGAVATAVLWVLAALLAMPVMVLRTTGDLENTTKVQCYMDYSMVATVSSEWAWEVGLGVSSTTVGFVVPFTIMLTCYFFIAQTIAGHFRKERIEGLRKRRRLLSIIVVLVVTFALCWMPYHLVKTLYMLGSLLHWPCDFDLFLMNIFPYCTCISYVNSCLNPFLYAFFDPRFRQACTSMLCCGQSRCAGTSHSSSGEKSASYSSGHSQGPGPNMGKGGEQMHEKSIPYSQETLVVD
In the case of `COc1ncnc(OC)c1-n1c(NS(=O)(=O)[C@@H](C)[C@H](OC)c2ncc(C)cn2)nnc1-c1ccc(C)o1` [Example 3.0, (1R,2S)—N-(4-(4,6-dimethoxypyrimidin-5-yl)-5-(5-methylfuran-2-yl)-4H-1,2,4-triazol-3-yl)-1-methoxy-1-(5-methylpyrimidin-2-yl)propane-2-sulfonamide], the EC50 worked out at 0.31 nM.
For `COc1cccc(OC)c1-n1c(NS(=O)(=O)CCc2ccc(C#N)cn2)nnc1-c1ccc(C)o1` [Example 19.0, 2-(5-cyano-2-pyridinyl)-N-(4-(2,6-dimethoxyphenyl)-5-(5-methyl-2-furanyl)-4H-1,2,4-triazol-3-yl)ethanesulfonamide], the EC50 was found to be 0.29 nM.
Consider `COc1cccc(OC)c1-n1c(NS(=O)(=O)CCc2ncc(Cl)cc2N2CCC2=O)nnc1-c1ccco1` [Example 27.0, 2-(5-chloro-3-(2-oxo-1-azetidinyl)-2-pyridinyl)-N-(4-(2,6-dimethoxyphenyl)-5-(2-furanyl)-4H-1,2,4-triazol-3-yl)ethanesulfonamide], for which the EC50 was 0.46 nM.
For `COc1cccc(OC)c1-n1c(NS(=O)(=O)CCc2ccc(C#N)cn2)nnc1-c1ccco1` [Example 35.0, 2-(5-cyano-2-pyridinyl)-N-(4-(2,6-dimethoxyphenyl)-5-(2-furanyl)-4H-1,2,4-triazol-3-yl)ethanesulfonamide], the EC50 was 3.5 nM.
As for `COc1cccc(OC)c1-n1c(NS(=O)(=O)CCc2ncc(C)cn2)nnc1-c1ccco1` [Example 39.0, N-(4-(2,6-dimethoxyphenyl)-5-(2-furanyl)-4H-1,2,4-triazol-3-yl)-2-(5-methyl-2-pyrimidinyl)ethanesulfonamide], the figure is 6.6 nM; as for `COc1cccc(OC)c1-n1c(NS(=O)(=O)[C@@H](C)[C@H](O)c2ccc(C#N)cc2F)nnc1-c1ccc(C)o1` [Example 75.0], 0.55 nM; as for `COc1cccc(OC)c1-n1c(NS(=O)(=O)[C@H](CCO)Cc2ncc(C)cn2)nnc1-c1ccc(C)o1` [Example 80.0], 1.1 nM.
As for `CCc1ccc(-c2nnc(NS(=O)(=O)CCc3ncc(F)cn3)n2-c2c(OC)cccc2OC)o1` [Example 98.0, N-(4-(2,6-dimethoxyphenyl)-5-(5-ethyl-2-furanyl)-4H-1,2,4-triazol-3-yl)-2-(5-fluoro-2-pyrimidinyl)ethanesulfonamide], the figure is 0.45 nM; as for `COc1cccc(OC)c1-n1c(NS(=O)(=O)[C@H](C)[C@@H](C)c2ncc(F)cn2)nnc1-c1ccc(C)o1` [Example 109.0], 0.87 nM.
In the case of `COc1cccc(OC)c1-n1c(NS(=O)(=O)[C@@H](C)[C@@H](C)c2ncc(F)cn2)nnc1-c1ccc(C)o1` [Example 110.0], the EC50 stood at 0.97 nM.
In the case of `COc1cccc(OC)c1-n1c(NS(=O)(=O)CCc2ccc(F)cc2C#N)nnc1-c1ccc(C)o1` [Example 119.0, 2-(2-Cyano-4-fluorophenyl)-N-(4-(2,6-dimethoxyphenyl)-5-(5-methylfuran-2-yl)-4H-1,2,4-triazol-3-yl)ethanesulfonamide], the EC50 turned out to be 0.15 nM.
For the molecule `COCCO[C@H](c1ncc(C)cn1)[C@H](C)S(=O)(=O)Nc1nnc(-c2ccc(C)o2)n1-c1c(OC)cccc1OC` [Example 120.0, (1R,2S)—N-(4-(2,6-Dimethoxyphenyl)-5-(5-methylfuran-2-yl)-4H-1,2,4-triazol-3-yl)-1-(2-methoxyethoxy)-1-(5-methylpyrimidin-2-yl)propane-2-sulfonamide], the concentration giving a half-maximal response (EC50) is 0.15 nM.
On to `COc1cccc(OC)c1-n1c(NS(=O)(=O)CCc2ncc(F)cn2)nnc1-c1ccc(C)o1` [Example 125.0, N-(4-(2,6-Dimethoxyphenyl)-5-(5-methylfuran-2-yl)-4H-1,2,4-triazol-3-yl)-2-(5-fluoropyrimidin-2-yl)ethanesulfonamide], for which the EC50 came to 0.34 nM.
Turning to `CC[C@H](Cc1ncc(F)cn1)S(=O)(=O)Nc1nnc(-c2ccc(C)o2)n1-c1c(OC)cccc1OC` [Example 128.0, (R)-N-(4-(2,6-dimethoxyphenyl)-5-(5-methylfuran-2-yl)-4H-1,2,4-triazol-3-yl)-1-(5-fluoropyrimidin-2-yl)butane-2-sulfonamide and (R)-N-(4-(2,6-dimethoxyphenyl)-5-(5-methylfuran-2-yl)-4H-1,2,4-triazol-3-yl)-1-(5-fluoropyrimidin-2-yl)butane-2-sulfonamide], the EC50 was determined as 1.1 nM.
On to `COc1cccc(OC)c1-n1c(NS(=O)(=O)CCc2ccc(F)cc2C#N)nnc1-c1ccc(C(F)(F)F)o1` [Example 131.0, 2-(2-Cyano-4-fluorophenyl)-N-(4-(2,6-dimethoxyphenyl)-5-(5-(trifluoromethyl)furan-2-yl)-4H-1,2,4-triazol-3-yl)ethanesulfonamide], for which the EC50 came to 3.9 nM.
As for `COc1cccc(OC)c1-n1c(NS(=O)(=O)[C@@H](C)[C@H](C)c2cnc(C)cn2)nnc1-c1ccc(C)o1` [Example 148.0, (2S,3R)—N-(4-(2,6-Dimethoxyphenyl)-5-(5-methyl-2-furanyl)-4H-1,2,4-triazol-3-yl)-3-(5-methyl-2-pyrazinyl)-2-butanesulfonamide], the EC50 is 0.19 nM.
As for `CCOC(=O)[C@@H]1C[C@@H](S(=O)(=O)Nc2nnc(-c3ccco3)n2-c2c(OC)cccc2OC)CN(c2ncc(F)cn2)C1` [Example 158.0, Ethyl (3R,5R)-5-((4-(2,6-dimethoxyphenyl)-5-(2-furanyl)-4H-1,2,4-triazol-3-yl)sulfamoyl)-1-(5-fluoro-2-pyrimidinyl)-3-piperidinecarboxylate or ethyl (3S,5S)-5-((4-(2,6-dimethoxyphenyl)-5-(2-furanyl)-4H-1,2,4-triazol-3-yl)sulfamoyl)-1-(5-fluoro-2-pyrimidinyl)-3-piperidinecarboxylate], the 50% effective concentration (EC50) is 0.4 nM.
Turning to `COc1ccccc1-n1c(NS(=O)(=O)[C@@H](C)[C@H](C)c2ncc(F)cn2)nnc1-c1ccc(C)o1` [Example 172.0, (2S,3R)-3-(5-Fluoro-2-pyrimidinyl)-N-(4-(2-methoxyphenyl)-5-(5-methyl-2-furanyl)-4H-1,2,4-triazol-3-yl)-2-butanesulfonamide], the EC50 worked out at 1.2 nM.
Turning to `Cc1ccc(-c2nnc(NS(=O)(=O)[C@@H](C)[C@H](C)c3ncc(F)cn3)n2C2CCOCC2)o1` [Example 182.0, (2S,3R)-3-(5-Fluoro-2-pyrimidinyl)-N-(5-(5-methyl-2-furanyl)-4-(tetrahydro-2H-pyran-4-yl)-4H-1,2,4-triazol-3-yl)-2-butanesulfonamide], the EC50 was 26 nM.
As for `COc1c(Br)cc(Br)c(OC)c1-n1c(NS(=O)(=O)[C@@H](C)[C@H](C)c2ncc(F)cn2)nnc1-c1ccc(C)o1` [Example 189.0, (2S,3R)—N-(4-(3,5-Dibromo-2,6-dimethoxyphenyl)-5-(5-methyl-2-furanyl)-4H-1,2,4-triazol-3-yl)-3-(5-fluoro-2-pyrimidinyl)-2-butanesulfonamide], the figure is 110 nM.
As for `COc1cccc(OC)c1-n1c(NS(=O)(=O)[C@H]2CCCN(c3ncc(F)cn3)C2)nnc1-c1ccco1` [Example 206.0, (3S)—N-(4-(2,6-Dimethoxyphenyl)-5-(2-furanyl)-4H-1,2,4-triazol-3-yl)-1-(5-fluoro-2-pyrimidinyl)-3-piperidinesulfonamide], the figure is 4.8 nM; as for `COc1cccc(OC)c1-n1c(NS(=O)(=O)[C@H](C)[C@@H](O)c2ncc(F)cn2)nnc1-c1ccc(C)o1` [Example 211.0, (1S,2R)-N-(4-(2,6-dimethoxyphenyl)-5-(5-methylfuran-2-yl)-4H-1,2,4-triazol-3-yl)-1-(5-fluoropyrimidin-2-yl)-1-hydroxypropane-2-sulfonamide], 4.1 nM; as for `COc1cccc(OC)c1-n1c(NS(=O)(=O)CCc2ncc(Cl)cc2C2=CCN(C)CC2)nnc1-c1ccco1` [Example 214.0, 2-(5-Chloro-1′-methyl-1′,2′,3′,6′-tetrahydro-3,4′-bipyridin-2-yl)-N-(4-(2,6-dimethoxyphenyl)-5-(2-furanyl)-4H-1,2,4-triazol-3-yl)ethanesulfonamide], 0.21 nM.
As for `COc1cccc(OC)c1-n1c(NS(=O)(=O)CCc2ncc(Cl)cc2C2=CCOCC2)nnc1-c1ccco1` [Example 215.0, 2-(5-Chloro-3-(3,6-dihydro-2H-pyran-4-yl)-2-pyridinyl)-N-(4-(2,6-dimethoxyphenyl)-5-(2-furanyl)-4H-1,2,4-triazol-3-yl)ethanesulfonamide], the EC50 was determined as 0.22 nM.
As to `COc1cccc(OC)c1-n1c(NS(=O)(=O)CCc2ncc(Cl)cc2CN2CCOCC2)nnc1-c1ccco1` [Example 219.0, 2-(5-Chloro-3-(4-morpholinylmethyl)-2-pyridinyl)-N-(4-(2,6-dimethoxyphenyl)-5-(2-furanyl)-4H-1,2,4-triazol-3-yl)ethanesulfonamide], the EC50 was 0.26 nM.
For `COc1cccc(OC)c1-n1c(NS(=O)(=O)CCc2ncc(Cl)cc2C2=CCNCC2)nnc1-c1ccco1` [Example 220.0, 2-(5-Chloro-1′,2′,3′,6′-tetrahydro-3,4′-bipyridin-2-yl)-N-(4-(2,6-dimethoxyphenyl)-5-(2-furanyl)-4H-1,2,4-triazol-3-yl)ethanesulfonamide], the EC50 is 0.27 nM.
Regarding `COc1cccc(OC)c1-n1c(NS(=O)(=O)CCc2ncc(Cl)cc2-c2cccnc2)nnc1-c1ccco1` [Example 221.0, 2-(5-Chloro-3,3′-bipyridin-2-yl)-N-(4-(2,6-dimethoxyphenyl)-5-(2-furanyl)-4H-1,2,4-triazol-3-yl)ethanesulfonamide], the EC50 came out at 0.3 nM.
Take `COc1cccc(OC)c1-n1c(NS(=O)(=O)CCc2ncc(Cl)cc2-c2ccncc2)nnc1-c1ccco1` [Example 222.0, 2-(5-chloro-3,4′-bipyridin-2-yl)-N-(4-(2,6-dimethoxyphenyl)-5-(2-furanyl)-4H-1,2,4-triazol-3-yl)ethanesulfonamide]: the EC50 came out at 0.31 nM.
As for `COc1cccc(OC)c1-n1c(NS(=O)(=O)CCc2ncc(Cl)cc2-c2cc[nH]n2)nnc1-c1ccco1` [Example 223.0, 2-(5-chloro-3-(1H-pyrazol-3-yl)-2-pyridinyl)-N-(4-(2,6-dimethoxyphenyl)-5-(2-furanyl)-4H-1,2,4-triazol-3-yl)ethanesulfonamide], the EC50 was 0.32 nM.

As a reminder, the EC50 is the concentration that produces a half-maximal response.
